US20080261994A1, “CYCLOPROPANE COMPOUNDS AND PHARMACEUTICAL USE THEREOF” (Japan Tobacco Inc., priority 2003, published 2008)
pIC50: −log10 of the molar value. Read-outs that look alike come from different tables or passages of the source.

What was measured:
Assay type in all cases: biochemical
aggrecanase-1 = biological target: T1, aggrecanase-1 (Homo sapiens, UniProt O75173); assay: Aggrecanase-1 inhibitory action (Particle Assay, GAG release from aggrecan-containing polyacrylamide particles)
T1 sequence (O75173 213-837): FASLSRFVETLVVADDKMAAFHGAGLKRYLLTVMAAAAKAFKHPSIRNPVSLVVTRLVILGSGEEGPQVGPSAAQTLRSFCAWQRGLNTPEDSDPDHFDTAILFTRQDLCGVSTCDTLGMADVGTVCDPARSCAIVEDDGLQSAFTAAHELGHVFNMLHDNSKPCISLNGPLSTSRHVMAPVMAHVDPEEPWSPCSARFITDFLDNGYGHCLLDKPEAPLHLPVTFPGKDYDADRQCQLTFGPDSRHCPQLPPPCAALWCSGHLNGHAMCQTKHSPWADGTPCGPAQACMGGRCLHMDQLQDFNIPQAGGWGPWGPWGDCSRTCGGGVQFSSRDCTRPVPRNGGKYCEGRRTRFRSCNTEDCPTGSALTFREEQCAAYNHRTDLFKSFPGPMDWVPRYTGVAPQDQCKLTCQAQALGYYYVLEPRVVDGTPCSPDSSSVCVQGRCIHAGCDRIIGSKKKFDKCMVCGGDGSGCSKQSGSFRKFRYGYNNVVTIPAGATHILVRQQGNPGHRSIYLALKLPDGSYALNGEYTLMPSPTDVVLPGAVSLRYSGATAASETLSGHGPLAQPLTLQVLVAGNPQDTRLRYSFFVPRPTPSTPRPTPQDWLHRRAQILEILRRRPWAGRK
Procedure, shortened: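 Enzyme and compound incubated with aggrecan-containing polyacrylamide particles in Tris-HCl buffer at 37° C for 15 h. Released GAG in supernatant measured with 1,9-dimethylmethylene blue at 595 nm against chondroitin sulfate standard; % inhibition from enzyme-free and inhibitor-free wells, reported as TC50 (μM).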

MMP-1 = biological target: T2, MMP-1 (Homo sapiens, UniProt P03956); assay: MMP-1 inhibitory action (Type I collagen Activity Measurement kit, FITC-labeled collagen type I)
T2 sequence (P03956 100-469): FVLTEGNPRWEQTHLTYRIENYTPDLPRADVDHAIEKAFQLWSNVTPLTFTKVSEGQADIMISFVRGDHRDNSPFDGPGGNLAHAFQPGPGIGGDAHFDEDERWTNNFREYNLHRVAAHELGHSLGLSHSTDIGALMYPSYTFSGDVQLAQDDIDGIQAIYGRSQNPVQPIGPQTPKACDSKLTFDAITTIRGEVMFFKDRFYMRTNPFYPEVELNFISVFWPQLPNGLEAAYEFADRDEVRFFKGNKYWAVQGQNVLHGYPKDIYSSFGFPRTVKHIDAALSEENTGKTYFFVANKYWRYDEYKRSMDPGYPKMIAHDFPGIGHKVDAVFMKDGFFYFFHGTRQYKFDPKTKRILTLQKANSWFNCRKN

Recombinant Human MMP-13 = biological target: T3, Recombinant Human MMP-13 (Homo sapiens, UniProt P45452); assay: MMP-13 inhibitory activity (MMP-13 specific fluorescent substrate with quencher)
T3 construct: purchased R&D systems 511-MM
Procedure, shortened: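 Recombinant human MMP-13 with test compound, reaction started with quenched fluorogenic peptide 7-MCA-Pro-CHA-Gly-NVal-His-Ala-DPA in Tris-HCl buffer, 1 h at 25 °C, stopped with acetic acid. Fluorescence at Ex 325/Em 405 nm; % inhibition versus enzyme-free and inhibitor-free wells, reported as IC50 (μM).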

[1] = aggrecanase-1 inhibitory action, read-out: IC50 AG1 (Experimental Example 1)
[2] = MMP-1 inhibitory action, FITC-labeled collagen type I, 37° C. for 3 hr, read-out: IC50 MMP1 (Experimental Example 2)
[3] = Recombinant Human MMP-13, fluorescent substrate, 25° C. for 1 h, read-out: IC50 MMP13 (Experimental Example 3)
[4] = Experimental Example 1, read-out: IC50 AG1
[5] = Experimental Example 2, read-out: IC50 MMP1
[6] = Experimental Example 3, read-out: IC50 MMP13

| Structure (SMILES) | pIC50 (aggrecanase-1; [1]) | pIC50 (MMP-1; [2]) | pIC50 (Recombinant Human MMP-13; [3]) | pIC50 (aggrecanase-1; [4]) | pIC50 (MMP-1; [5]) | pIC50 (Recombinant Human MMP-13; [6]) |
| --- | --- | --- | --- | --- | --- | --- |
| NCC1(c2ccccc2)CC1(NS(=O)(=O)c1ccc(-c2ccc(Cl)cc2)s1)C(=O)O (stereo not drawn) [Example 2-361] |  |  |  | ≤ 6.00 | ≤ 5.00 | ≤ 6.00 |
| O=C(O)[C@]1(NS(=O)(=O)c2ccc(-n3cc(Br)cn3)s2)C[C@@H]1c1ccccc1 [Example 2-605] |  |  |  | ≤ 6.00 | ≤ 5.00 | ≤ 6.00 |
| O=C(O)[C@@]1(NS(=O)(=O)c2ccc3c(c2)Cc2cc(F)ccc2-3)C[C@H]1c1ccccc1 [Example 2-244] | > 6.00 | ≤ 5.00 | > 6.00 |  |  |  |
| CC1[C@H](c2ccccc2)[C@]1(NS(=O)(=O)N1CCN(C(=O)OCc2ccccc2)CC1)C(=O)O (stereo partly drawn) [Example 2-532] |  |  |  | ≤ 6.00 | ≤ 6.00 | ≤ 6.00 |
| O=C(CCc1cccc(C2CC2(NS(=O)(=O)c2ccc(-c3ccc(Cl)cc3)s2)C(=O)O)c1)N1CCC(O)CC1 (stereo not drawn) [Example 2-224] | > 7.00 | ≤ 6.00 | > 7.00 |  |  |  |
| O=C(O)[C@]1(NS(=O)(=O)c2ccc(-c3cc(CF)on3)s2)C[C@@H]1c1ccccc1 [Example 2-98] | > 7.00 | ≤ 6.00 | > 7.00 |  |  |  |
| CC1[C@H](c2ccccc2)[C@]1(NS(=O)(=O)N1Cc2ccc(Cl)cc2C1)C(=O)O (stereo partly drawn) [Example 2-538] |  |  |  | ≤ 6.00 | ≤ 6.00 | > 6.00 |
| O=C(CCc1cccc(C2CC2(NS(=O)(=O)c2ccc(-c3ccc(Cl)cc3)s2)C(=O)O)c1)N1CCSCC1 (stereo not drawn) [Example 2-211] | > 7.00 | ≤ 5.00 | > 7.00 |  |  |  |
| O=C(O)[C@]1(NS(=O)(=O)c2ccc(-c3cc(C(F)(F)F)on3)s2)C[C@@H]1c1ccccc1 [Example 2-43] | > 7.00 | > 6.00 | > 7.00 |  |  |  |
| CC(C)CCN1CCN(S(=O)(=O)N[C@@]2(C(=O)O)C(C)[C@@H]2c2ccccc2)CC1 (stereo partly drawn) [Example 2-530] |  |  |  | ≤ 6.00 | ≤ 6.00 | ≤ 6.00 |
| CC(C)OC(=O)N1CCN(S(=O)(=O)N[C@@]2(C(=O)O)C[C@@H]2c2ccccc2)CC1 [Example 2-510] |  |  |  | ≤ 6.00 | ≤ 6.00 | ≤ 6.00 |
| CCC1[C@@H](c2ccccc2)[C@@]1(NS(=O)(=O)c1ccc(-c2cc(C(F)(F)F)on2)s1)C(=O)O (stereo partly drawn) [Example 2-327] |  |  |  | > 6.00 | > 6.00 | > 7.00 |
| CC1[C@H](c2ccccc2)[C@]1(NS(=O)(=O)N1CCCN(c2ccc(F)cn2)CC1)C(=O)O (stereo partly drawn) [Example 2-462] |  |  |  | > 6.00 | ≤ 6.00 | ≤ 6.00 |
| CC(C)NCC1(c2ccccc2)CC1(NS(=O)(=O)c1ccc(-c2ccc(Cl)cc2)s1)C(=O)O (stereo not drawn) [Example 2-392] |  |  |  | ≤ 6.00 | ≤ 5.00 | ≤ 6.00 |
| CC1[C@H](c2ccccc2)[C@]1(NS(=O)(=O)c1ccc(OCc2ccc(Cl)cc2Cl)cc1)C(=O)O (stereo partly drawn) [Example 2-324] |  |  |  | ≤ 6.00 | ≤ 5.00 | ≤ 6.00 |
| O=C(O)[C@]1(NS(=O)(=O)c2ccc(-c3cc(C(F)(F)F)on3)s2)C[C@@H]1c1ccccc1Br [Example 2-193] | > 6.00 | ≤ 5.00 | > 6.00 |  |  |  |

The remaining lines, values ahead:

| pIC50 (aggrecanase-1; [1]) | pIC50 (MMP-1; [2]) | pIC50 (Recombinant Human MMP-13; [3]) | pIC50 (aggrecanase-1; [4]) | pIC50 (MMP-1; [5]) | pIC50 (Recombinant Human MMP-13; [6]) | Structure (SMILES) |
| --- | --- | --- | --- | --- | --- | --- |
| > 7.00 | ≤ 5.00 | > 7.00 |  |  |  | O=C(O)[C@]1(NS(=O)(=O)c2ccc(-c3ccc(Cl)cc3)s2)C[C@@H]1c1cccc([N+](=O)[O-])c1 [Example 2-170] |
| > 6.00 | ≤ 5.00 | > 6.00 |  |  |  | CN1CCN(C(=O)c2cccc(C3CC3(NS(=O)(=O)c3ccc(-c4ccc(Cl)cc4)s3)C(=O)O)c2)CC1 (stereo not drawn) [Example 2-200] |
| ≤ 6.00 | ≤ 5.00 | > 6.00 |  |  |  | O=C(O)[C@]1(NS(=O)(=O)c2ccc(-c3cc(C(F)(F)C(F)(F)F)on3)s2)C[C@@H]1c1ccccc1 [Example 2-111] |
| > 7.00 | ≤ 6.00 | > 7.00 |  |  |  | O=C(O)C1(NS(=O)(=O)c2ccc(-c3ccc(Cl)cc3)s2)CC1c1cccc(OCc2cccnc2)c1 (stereo not drawn) [Example 1-107] |
| > 6.00 | ≤ 6.00 | > 6.00 |  |  |  | O=C(c1cccc(C2CC2(NS(=O)(=O)c2ccc(-c3cc(C(F)(F)F)on3)s2)C(=O)O)c1)N1CCOCC1 (stereo not drawn) [Example 2-258] |
|  |  |  | > 7.00 | > 6.00 | > 7.00 | O=C(O)C1(NS(=O)(=O)c2ccc(-c3cc(C(F)(F)F)on3)s2)C2CCC(O)c3ccccc3C21 (stereo not drawn) [Example 2-438] |
| > 6.00 | ≤ 5.00 | > 6.00 |  |  |  | CN(C)CCC(=O)Nc1cccc(C2CC2(NS(=O)(=O)c2ccc(-c3ccc(Cl)cc3)s2)C(=O)O)c1 (stereo not drawn) [Example 2-223] |
|  |  |  | > 7.00 | ≤ 5.00 | > 6.00 | C[C@@H]1CN(CC2(c3ccccc3)CC2(NS(=O)(=O)c2ccc(-c3ccc(Cl)cc3)s2)C(=O)O)C[C@H](C)O1 (stereo partly drawn) [Example 2-344] |
| > 6.00 | ≤ 5.00 | > 6.00 |  |  |  | O=C(O)C1(NS(=O)(=O)c2ccc(-c3ccc(Cl)cc3)s2)CC1c1cccc(OCCN2CCOCC2)c1 (stereo not drawn) [Example 2-197] |
|  |  |  | ≤ 6.00 | ≤ 6.00 | > 6.00 | CC1[C@H](c2ccccc2)[C@]1(NS(=O)(=O)N1Cc2ccc(Br)cc2C1)C(=O)O (stereo partly drawn) [Example 2-505] |
|  |  |  | > 7.00 | ≤ 6.00 | > 6.00 | C[C@]1(c2ccccc2)C[C@@]1(NS(=O)(=O)c1ccc(-c2ccc(F)c(F)c2)s1)C(=O)O [Example 2-581] |
| > 6.00 | ≤ 5.00 | > 7.00 |  |  |  | O=C(CCc1ccccc1C1CC1(NS(=O)(=O)c1ccc(-c2cc(C(F)(F)F)on2)s1)C(=O)O)N1CCOCC1 (stereo not drawn) [Example 2-230] |
|  |  |  | > 6.00 | ≤ 5.00 | > 6.00 | O=C(NCC1(c2ccccc2)CC1(NS(=O)(=O)c1ccc(-c2ccc(Cl)cc2)s1)C(=O)O)[C@@H]1CCCO1 (stereo partly drawn) [Example 2-385] |
|  |  |  | > 7.00 | > 6.00 | > 7.00 | CC1[C@H](c2ccccc2)[C@]1(NS(=O)(=O)c1ccc(-c2cc3ccccc3[nH]2)s1)C(=O)O (stereo partly drawn) [Example 2-493] |
| > 6.00 | ≤ 5.00 | > 6.00 |  |  |  | O=C(NCCO)c1cccc(C2CC2(NS(=O)(=O)c2ccc(-c3ccc(Cl)cc3)s2)C(=O)O)c1 (stereo not drawn) [Example 2-75] |
|  |  |  | ≤ 6.00 | ≤ 5.00 | > 7.00 | COc1cnn(-c2ccc(S(=O)(=O)N[C@@]3(C(=O)O)C[C@@H]3c3ccccc3)cn2)c1 [Example 2-482] |
| ≤ 5.00 | ≤ 5.00 | ≤ 5.00 |  |  |  | O=C(c1cccc(Cl)c1)N1CCN(S(=O)(=O)NC2(C(=O)O)CC2c2ccccc2)CC1 (stereo not drawn) [Example 2-160] |
| > 7.00 | ≤ 5.00 | > 6.00 |  |  |  | O=C(O)C1(NS(=O)(=O)c2ccc(-c3ccc(Cl)cc3)s2)CC1c1ccccc1 (stereo not drawn) [Example 1-69] |
|  |  |  | ≤ 6.00 | ≤ 6.00 | > 6.00 | O=C1COCCN1CC1(c2ccccc2)CC1(NS(=O)(=O)c1ccc(-c2ccc(Cl)cc2)s1)C(=O)O (stereo not drawn) [Example 2-400] |
